Source: patent US10537643B2, “Chemoembolization composition comprising anti-angiogenic agents” (CENTRE HOSPITALIER UNIVERSITAIRE VAUDOIS, priority 2010, dated 2020)

Tests used:
[1] = Stability / precipitation of sunitinib solutions; type: physicochemical
Text: However, preparing drug-loaded beads is not a straightforward procedure, especially if they should be loaded with chemotherapeutic agents of low solubility in aqueous media. This solubility can be insufficient to reach useful therapeutic dose, such as for sorafenib tosylate. In the case where apparent solubility is sufficient to reach useful therapeutic dose, it may appear that some delayed precipitation occurs; making impossible the utilization of such preparation in a clinic setup. For example, sunitinib base or malate can be dissolved in standard media used for loading anthracycline drugs, such as doxorubicine. […] In addition, no liquid oral or parenteral solution of any sunitinib salt is commercially available, that could be used to load DEBs. […] WO 2007/090897 further discloses a method for loading beads with water insoluble chemotherapeutic agents by using organic solvents. However, such an approach is not adequate for extemporaneous preparation by the medical staff.
Advantageously, this solution is isotonic to human plasma and it is safe for the parenteral applications. Noteworthy, the sugar is not limited to glucose. Other sugars or polyol could be used such as sucrose, dextran, mannitol, sorbitol or trehalose.

[2] = sunitinib per os, unique dose of 6 mg, rabbit; according to previous pharmacological studies (FDA); cited from earlier work
[3] = Liver enzymes after administration in healthy rabbits; conditions: sunitinib p.o., unique dose of 6 mg, healthy rabbit
Experimental: Adult healhy male New Zealand White Rabbits (n=12) weighing between 3.2-2.8 kgs were used.
DC Beads measuring between 100-300 μm (Biocompatibles) were used.
Animals were separated in 3 groups.
Liver enzymes were measured from blood samples obtained by a catheter placed in the vein of the rabbit's ear, immediately before embolization or oral administration of the drug and 6 hours.

[4] = cited from earlier work

Row | Structure (SMILES) | precipitation in solution ([1]; standard media used for loading anthracycline drugs) | therapeutic plasmatic concentration (Cmax) [2] [ng/mL] | liver enzymes [3] | stability of the drug ([1]; HPLC analysis, sunitinib loaded DC beads preparation) | stability of sunitinib solution (precipitation) ([1]; in presence of sugar, 5% glucose, in contrast to saline or hydrochloric acid solutions) | plasma concentrations ([4]; approved starting oral dose 50 mg/day) | patients with serious (grade 3 or 4) adverse events ([4]; oral sunitinib therapy) [%] | patients requiring dose reductions ([4]; patients treated for RCC) [%]
1 | CCN(CC)CCNC(=O)c1c(C)[nH]c(/C=C2\C(=O)Nc3ccc(F)cc32)c1C [sunitinib malate] | precipitate within a short period of time |  |  |  |  |  |  | 
2 | CCN(CC)CCNC(=O)c1c(C)[nH]c(/C=C2\C(=O)Nc3ccc(F)cc32)c1C [sunitinib] |  | 45 to 55 | did not cause any alteration | verified | stable, without any precipitation | at least 50 ng/ml | ≤ 10 | 50
